Test results published in ChEMBL document CHEMBL4052651, “Searching for novel N1-substituted benzimidazol-2-ones as non-nucleoside HIV-1 RT inhibitors” (Bioorg Med Chem, 2017).

Experiments:
[1] = tested on: Human immunodeficiency virus 1; assay: Antiviral activity against HIV1 3B infected in human MT4 cells assessed as inhibition of virus-induced cytopathic effect after 5 days by MTT assay; type: functional, cell-based; settings: Human immunodeficiency virus 1, 3B, MT4, 120 h
[2] = biological target: Human immunodeficiency virus type 1 reverse transcriptase (Human immunodeficiency virus 1, UniProt Q72547); assay: Inhibition of recombinant wild-type HIV-1 reverse transcriptase p66/p51 RNA-dependent DNA polymerase activity expressed in Escherichia coli JM109 assessed as reduction in dTTP incorporation using poly(rA)/oligo(dT)16 as template/primer after 40 mins by PicoGreen dye based spectrofluorometric analysis
[3] = Cytotoxicity against human MT4 cells assessed as reduction in cell viability after 5 days by MTT assay; type: cell-based
[4] = Selectivity index, ratio of CC50 for human MT4 cells to EC50 for HIV1 3B infected in human MT4 cells; type: toxicity, cell-based; settings: HIV1 3B infected MT4 cells, read-out: Ratio CC50/EC50
[5] = biological target: Human immunodeficiency virus type 1 reverse transcriptase (Human immunodeficiency virus 1, UniProt Q72547, L100I); assay: Inhibition of HIV-1 reverse transcriptase L100I mutant assessed as reduction in dTTP incorporation using poly(rA)/oligo(dT)16 as template/primer after 40 mins by PicoGreen dye based spectrofluorometric analysis
[6] = biological target: Human immunodeficiency virus type 1 reverse transcriptase (Human immunodeficiency virus 1, UniProt Q72547, K103N); assay: Inhibition of HIV-1 reverse transcriptase K103N mutant assessed as reduction in dTTP incorporation using poly(rA)/oligo(dT)16 as template/primer after 40 mins by PicoGreen dye based spectrofluorometric analysis
[7] = biological target: Human immunodeficiency virus type 1 reverse transcriptase (Human immunodeficiency virus 1, UniProt Q72547, V106A); assay: Inhibition of HIV-1 reverse transcriptase V106A mutant assessed as reduction in dTTP incorporation using poly(rA)/oligo(dT)16 as template/primer after 40 mins by PicoGreen dye based spectrofluorometric analysis
[8] = biological target: Human immunodeficiency virus type 1 reverse transcriptase (Human immunodeficiency virus 1, UniProt Q72547, E138K); assay: Inhibition of HIV-1 reverse transcriptase E138K mutant assessed as reduction in dTTP incorporation using poly(rA)/oligo(dT)16 as template/primer after 40 mins by PicoGreen dye based spectrofluorometric analysis
[9] = biological target: Human immunodeficiency virus type 1 reverse transcriptase (Human immunodeficiency virus 1, UniProt Q72547, Y181C); assay: Inhibition of HIV-1 reverse transcriptase Y181C mutant assessed as reduction in dTTP incorporation using poly(rA)/oligo(dT)16 as template/primer after 40 mins by PicoGreen dye based spectrofluorometric analysis
[10] = biological target: Human immunodeficiency virus type 1 reverse transcriptase (Human immunodeficiency virus 1, UniProt Q72547, Y188L); assay: Inhibition of HIV-1 reverse transcriptase Y188L mutant assessed as reduction in dTTP incorporation using poly(rA)/oligo(dT)16 as template/primer after 40 mins by PicoGreen dye based spectrofluorometric analysis
[11] = biological target: Human immunodeficiency virus type 1 reverse transcriptase (Human immunodeficiency virus 1, UniProt Q72547, G190A); assay: Inhibition of HIV-1 reverse transcriptase G190A mutant assessed as reduction in dTTP incorporation using poly(rA)/oligo(dT)16 as template/primer after 40 mins by PicoGreen dye based spectrofluorometric analysis

Structure (SMILES)	EC50 [1]	IC50 [2]	CC50 at 120 h [3]	selectivity ratio [4]	IC50 [5]	IC50 [6]	IC50 [7]	IC50 [8]	IC50 [9]	IC50 [10]	IC50 [11]
O=c1[nH]c2ccc(Cl)cc2n1S(=O)(=O)CCc1cccc(Cl)c1	> 64 µM	131 µM	63 µM	< 1	≥ 285 µM	> 323 µM	45 µM	> 323 µM	74 µM	> 323 µM	258 µM
O=c1[nH]c2ccc(Cl)cc2n1S(=O)(=O)Cc1ccccc1Cl	0.19 µM	1.3 µM	52 µM	271	7.13 µM	> 335 µM	1.8 µM	12 µM	> 335 µM	> 335 µM	238 µM
Cc1ccccc1CCS(=O)(=O)n1c(=O)[nH]c2ccc(Cl)cc21	> 32 µM	29 µM	32 µM	< 1	59 µM	89 µM	44 µM	49 µM	32 µM	165 µM	54 µM
O=c1[nH]c2ccc(Cl)cc2n1S(=O)(=O)CCc1ccccc1Cl	> 100 µM	116 µM	100 µM	< 1	214 µM	> 323 µM	137 µM	≥ 323 µM	176 µM	> 323 µM	280 µM
O=c1[nH]c2ccc(Cl)cc2n1S(=O)(=O)Cc1ccccc1	0.83 µM	17 µM	155 µM	187	90 µM	> 371 µM	9.38 µM	98 µM	≥ 273 µM	> 371 µM	250 µM
O=c1[nH]c2ccc(Cl)cc2n1S(=O)(=O)Cc1ccc(Cl)cc1	5.06 µM	18 µM	77 µM	15	92 µM	> 335 µM	15 µM	≥ 285 µM	> 335 µM	> 335 µM	> 335 µM
Cc1ccc(CCS(=O)(=O)n2c(=O)[nH]c3ccc(Cl)cc32)cc1	> 160 µM	218 µM	161 µM	< 1	311 µM	> 342 µM	95 µM	160 µM	179 µM	249 µM	89 µM
O=c1[nH]c2ccc(Cl)cc2n1S(=O)(=O)CCc1ccc(Cl)cc1	> 91 µM	95 µM	91 µM	< 1	180 µM	231 µM	69 µM	108 µM	107 µM	227 µM	69 µM
Cc1cccc(CS(=O)(=O)n2c(=O)[nH]c3ccc(Cl)cc32)c1	0.08 µM	0.79 µM	110 µM	1380	3 µM	105 µM	0.9 µM	7.6 µM	98 µM	> 356 µM	132 µM
Cc1cccc(CCS(=O)(=O)n2c(=O)[nH]c3ccc(Cl)cc32)c1	> 31 µM	39 µM	31 µM	< 1	65 µM	119 µM	74 µM	88 µM	80 µM	219 µM	90 µM
O=c1[nH]c2ccc(Cl)cc2n1S(=O)(=O)Cc1cccc(Cl)c1	1.14 µM	6 µM	152 µM	134	29 µM	> 335 µM	6.6 µM	64 µM	> 335 µM	> 335 µM	260 µM
Cc1ccc(CS(=O)(=O)n2c(=O)[nH]c3ccc(Cl)cc32)cc1	1.93 µM	2.25 µM	93 µM	48	55 µM	280 µM	6.6 µM	63 µM	183 µM	280 µM	≥ 310 µM
O=c1[nH]c2ccc(Cl)cc2n1S(=O)(=O)CCc1ccccc1	> 30 µM	76 µM	30 µM	< 1	> 356 µM	> 356 µM	> 356 µM	> 356 µM	> 356 µM	> 356 µM	> 356 µM
Cc1ccccc1CS(=O)(=O)n1c(=O)[nH]c2ccc(Cl)cc21	10 µM	21 µM	238 µM	24	≥ 64 µM	> 356 µM	> 356 µM	> 356 µM	> 356 µM	> 356 µM	> 356 µM
O=C1Nc2ccc(Cl)cc2[C@@](C#CC2CC2)(C(F)(F)F)O1 [EFAVIRENZ]			> 6.33 µM								
Cc1ccnc2c1NC(=O)c1cccnc1N2C1CC1 [NEVIRAPINE]	0.18 µM		> 15 µM								
